Assay results reported in the supplement of paper PMC13207355.

What was measured:
Conditions in all cases: exposure time: 72 h
[1] = tested on: E28 (patient-derived glioblastoma stem cells of classical subtype); test: surviving fraction (nuclei count normalised to DMSO); higher = more cells surviving (less toxic)
[2] = tested on: E57 (patient-derived glioblastoma stem cells of mesenchymal subtype); test: as above
[3] = tested on: FT3469 (normal neural stem cell line); test: as above
[4] = tested on: E34 (patient-derived glioblastoma stem cells of proneural subtype); test: as above
[5] = tested on: E13 (patient-derived glioblastoma stem cells of classical subtype); test: as above
[6] = tested on: E21 (patient-derived glioblastoma stem cells of mesenchymal subtype); test: as above
[7] = tested on: E31 (patient-derived glioblastoma stem cells of proneural subtype); test: as above
[8] = tested on: E28; test: phenotypic distance (Euclidean, principal components) from DMSO controls (arbitrary units); higher = stronger morphological change
[9] = tested on: E57; test: as above
[10] = tested on: FT3469; test: as above
[11] = tested on: E34; test: as above
[12] = tested on: E13; test: as above
[13] = tested on: E21; test: as above
[14] = tested on: E31; test: as above
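For phenotypic distance (Euclidean, principal components) from DMSO controls in this document: cell Painting imaging in 384-well plates, CellProfiler features reduced to at least 20 principal components, Euclidean distance versus same-plate DMSO vehicle wells (0.1% v/v), median over six images per well.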
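For surviving fraction (nuclei count normalised to DMSO) in this document: nuclei counted by high-content imaging of Hoechst-stained cells in laminin-coated 384-well plates, relative to 0.1% DMSO vehicle wells, with staurosporine as cell-death control.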

Structure (SMILES): CCCCC1C(=O)N(c2ccccc2)N(c2ccc(O)cc2)C1=O (stereo unspecified) [Oxyphenbutazone]
- surviving fraction ([1]; 4.1 nM): 1.06
- surviving fraction ([1]; 12.3 nM): 1.05
- surviving fraction ([1]; 37 nM): 1.06
- surviving fraction ([1]; 111.1 nM): 1.06
- surviving fraction ([1]; 333.3 nM): 0.96
- surviving fraction ([1]; 1000 nM): 1.02
- surviving fraction ([1]; 3000 nM): 1.07
- surviving fraction ([2]; 4.1 nM): 1.04
- surviving fraction ([2]; 12.3 nM): 1.02
- surviving fraction ([2]; 37 nM): 0.983
- surviving fraction ([2]; 111.1 nM): 0.979
- surviving fraction ([2]; 333.3 nM): 1.06
- surviving fraction ([2]; 1000 nM): 0.965
- surviving fraction ([2]; 3000 nM): 0.938
- surviving fraction ([3]; 4.1 nM): 0.985
- surviving fraction ([3]; 12.3 nM): 0.955
- surviving fraction ([3]; 37 nM): 0.951
- surviving fraction ([3]; 111.1 nM): 1.13
- surviving fraction ([3]; 333.3 nM): 1.03
- surviving fraction ([3]; 1000 nM): 0.989
- surviving fraction ([3]; 3000 nM): 1.08
- surviving fraction ([4]; 4.1 nM): 0.971
- surviving fraction ([4]; 12.3 nM): 1.07
- surviving fraction ([4]; 37 nM): 0.978
- surviving fraction ([4]; 111.1 nM): 1.07
- surviving fraction ([4]; 333.3 nM): 1.04
- surviving fraction ([4]; 1000 nM): 1.11
- surviving fraction ([4]; 3000 nM): 1.01
- surviving fraction ([5]; 4.1 nM): 1.06
- surviving fraction ([5]; 12.3 nM): 1.12
- surviving fraction ([5]; 37 nM): 0.991
- surviving fraction ([5]; 111.1 nM): 1.1
- surviving fraction ([5]; 333.3 nM): 1.11
- surviving fraction ([5]; 1000 nM): 1.04
- surviving fraction ([5]; 3000 nM): 0.978
- surviving fraction ([6]; 4.1 nM): 1.04
- surviving fraction ([6]; 12.3 nM): 1.09
- surviving fraction ([6]; 37 nM): 0.947
- surviving fraction ([6]; 111.1 nM): 1.05
- surviving fraction ([6]; 333.3 nM): 0.957
- surviving fraction ([6]; 1000 nM): 1.05
- surviving fraction ([6]; 3000 nM): 1.1
- surviving fraction ([7]; 4.1 nM): 0.93
- surviving fraction ([7]; 12.3 nM): 0.906
- surviving fraction ([7]; 37 nM): 0.918
- surviving fraction ([7]; 111.1 nM): 1.01
- surviving fraction ([7]; 333.3 nM): 0.939
- surviving fraction ([7]; 1000 nM): 1.07
- surviving fraction ([7]; 3000 nM): 0.941
- phenotypic distance ([8]; 4.1 nM): 0.723
- phenotypic distance ([8]; 12.3 nM): 0.56
- phenotypic distance ([8]; 37 nM): 0.689
- phenotypic distance ([8]; 111.1 nM): 0.5
- phenotypic distance ([8]; 333.3 nM): 0.608
- phenotypic distance ([8]; 1000 nM): 0.532
- phenotypic distance ([8]; 3000 nM): 0.618
- phenotypic distance ([9]; 4.1 nM): 0.925
- phenotypic distance ([9]; 12.3 nM): 0.967
- phenotypic distance ([9]; 37 nM): 0.794
- phenotypic distance ([9]; 111.1 nM): 0.629
- phenotypic distance ([9]; 333.3 nM): 0.441
- phenotypic distance ([9]; 1000 nM): 0.546
- phenotypic distance ([9]; 3000 nM): 0.652
- phenotypic distance ([10]; 4.1 nM): 0.918
- phenotypic distance ([10]; 12.3 nM): 0.982
- phenotypic distance ([10]; 37 nM): 0.908
- phenotypic distance ([10]; 111.1 nM): 0.496
- phenotypic distance ([10]; 333.3 nM): 0.356
- phenotypic distance ([10]; 1000 nM): 0.51
- phenotypic distance ([10]; 3000 nM): 0.472
- phenotypic distance ([11]; 4.1 nM): 0.618
- phenotypic distance ([11]; 12.3 nM): 0.62
- phenotypic distance ([11]; 37 nM): 0.522
- phenotypic distance ([11]; 111.1 nM): 0.833
- phenotypic distance ([11]; 333.3 nM): 0.434
- phenotypic distance ([11]; 1000 nM): 1.17
- phenotypic distance ([11]; 3000 nM): 0.608
- phenotypic distance ([12]; 4.1 nM): 0.562
- phenotypic distance ([12]; 12.3 nM): 0.782
- phenotypic distance ([12]; 37 nM): 0.706
- phenotypic distance ([12]; 111.1 nM): 0.835
- phenotypic distance ([12]; 333.3 nM): 1.34
- phenotypic distance ([12]; 1000 nM): 0.708
- phenotypic distance ([12]; 3000 nM): 0.404
- phenotypic distance ([13]; 4.1 nM): 0.965
- phenotypic distance ([13]; 12.3 nM): 0.677
- phenotypic distance ([13]; 37 nM): 0.635
- phenotypic distance ([13]; 111.1 nM): 0.699
- phenotypic distance ([13]; 333.3 nM): 0.588
- phenotypic distance ([13]; 1000 nM): 0.698
- phenotypic distance ([13]; 3000 nM): 0.735
- phenotypic distance ([14]; 4.1 nM): 0.939
- phenotypic distance ([14]; 12.3 nM): 1.97
- phenotypic distance ([14]; 37 nM): 0.848
- phenotypic distance ([14]; 111.1 nM): 0.364
- phenotypic distance ([14]; 333.3 nM): 0.728
- phenotypic distance ([14]; 1000 nM): 0.522
- phenotypic distance ([14]; 3000 nM): 0.632

Structure (SMILES): Cc1cccn2c(=O)c(-c3nnn[nH]3)cnc12 [Pemirolast potassium]
- surviving fraction ([1]; 4.1 nM): 1.07
- surviving fraction ([1]; 12.3 nM): 1.11
- surviving fraction ([1]; 37 nM): 1.06
- surviving fraction ([1]; 111.1 nM): 0.959
- surviving fraction ([1]; 333.3 nM): 1.14
- surviving fraction ([1]; 1000 nM): 1.05
- surviving fraction ([1]; 3000 nM): 1.22
- surviving fraction ([2]; 4.1 nM): 0.965
- surviving fraction ([2]; 12.3 nM): 0.992
- surviving fraction ([2]; 37 nM): 0.959
- surviving fraction ([2]; 111.1 nM): 1.09
- surviving fraction ([2]; 333.3 nM): 0.986
- surviving fraction ([2]; 1000 nM): 1.01
- surviving fraction ([2]; 3000 nM): 1.01
- surviving fraction ([3]; 4.1 nM): 1.01
- surviving fraction ([3]; 12.3 nM): 0.959
- surviving fraction ([3]; 37 nM): 1.08
- surviving fraction ([3]; 111.1 nM): 1.07
- surviving fraction ([3]; 333.3 nM): 1.19
- surviving fraction ([3]; 1000 nM): 1.09
- surviving fraction ([3]; 3000 nM): 1.23
- surviving fraction ([4]; 4.1 nM): 1.09
- surviving fraction ([4]; 12.3 nM): 0.99
- surviving fraction ([4]; 37 nM): 1.04
- surviving fraction ([4]; 111.1 nM): 0.927
- surviving fraction ([4]; 333.3 nM): 1.15
- surviving fraction ([4]; 1000 nM): 1.03
- surviving fraction ([4]; 3000 nM): 1.11
- surviving fraction ([5]; 4.1 nM): 0.925
- surviving fraction ([5]; 12.3 nM): 0.971
- surviving fraction ([5]; 37 nM): 1
- surviving fraction ([5]; 111.1 nM): 1.04
- surviving fraction ([5]; 333.3 nM): 0.947
- surviving fraction ([5]; 1000 nM): 0.974
- surviving fraction ([5]; 3000 nM): 1.18
- surviving fraction ([6]; 4.1 nM): 0.923
- surviving fraction ([6]; 12.3 nM): 0.982
- surviving fraction ([6]; 37 nM): 0.908
- surviving fraction ([6]; 111.1 nM): 0.88
- surviving fraction ([6]; 333.3 nM): 0.953
- surviving fraction ([6]; 1000 nM): 1.01
- surviving fraction ([6]; 3000 nM): 1.1
- surviving fraction ([7]; 4.1 nM): 0.909
- surviving fraction ([7]; 12.3 nM): 0.917
- surviving fraction ([7]; 37 nM): 0.897
- surviving fraction ([7]; 111.1 nM): 0.921
- surviving fraction ([7]; 333.3 nM): 1.21
- surviving fraction ([7]; 1000 nM): 0.987
- surviving fraction ([7]; 3000 nM): 1.12
- phenotypic distance ([8]; 4.1 nM): 0.658
- phenotypic distance ([8]; 12.3 nM): 0.636
- phenotypic distance ([8]; 37 nM): 0.677
- phenotypic distance ([8]; 111.1 nM): 0.665
- phenotypic distance ([8]; 333.3 nM): 0.613
- phenotypic distance ([8]; 1000 nM): 0.514
- phenotypic distance ([8]; 3000 nM): 0.875
- phenotypic distance ([9]; 4.1 nM): 0.873
- phenotypic distance ([9]; 12.3 nM): 0.412
- phenotypic distance ([9]; 37 nM): 0.46
- phenotypic distance ([9]; 111.1 nM): 0.618
- phenotypic distance ([9]; 333.3 nM): 0.603
- phenotypic distance ([9]; 1000 nM): 0.198
- phenotypic distance ([9]; 3000 nM): 0.693
- phenotypic distance ([10]; 4.1 nM): 1.49
- phenotypic distance ([10]; 12.3 nM): 0.577
- phenotypic distance ([10]; 37 nM): 0.829
- phenotypic distance ([10]; 111.1 nM): 0.485
- phenotypic distance ([10]; 333.3 nM): 0.522
- phenotypic distance ([10]; 1000 nM): 0.561
- phenotypic distance ([10]; 3000 nM): 1.16
- phenotypic distance ([11]; 4.1 nM): 1.15
- phenotypic distance ([11]; 12.3 nM): 0.672
- phenotypic distance ([11]; 37 nM): 0.605
- phenotypic distance ([11]; 111.1 nM): 0.603
- phenotypic distance ([11]; 333.3 nM): 0.641
- phenotypic distance ([11]; 1000 nM): 0.674
- phenotypic distance ([11]; 3000 nM): 0.547
- phenotypic distance ([12]; 4.1 nM): 0.849
- phenotypic distance ([12]; 12.3 nM): 0.649
- phenotypic distance ([12]; 37 nM): 2.3
- phenotypic distance ([12]; 111.1 nM): 0.669
- phenotypic distance ([12]; 333.3 nM): 3.24
- phenotypic distance ([12]; 1000 nM): 0.451
- phenotypic distance ([12]; 3000 nM): 0.784
- phenotypic distance ([13]; 4.1 nM): 0.761
- phenotypic distance ([13]; 12.3 nM): 0.597
- phenotypic distance ([13]; 37 nM): 3.74
- phenotypic distance ([13]; 111.1 nM): 0.731
- phenotypic distance ([13]; 333.3 nM): 0.31
- phenotypic distance ([13]; 1000 nM): 0.294
- phenotypic distance ([13]; 3000 nM): 0.896
- phenotypic distance ([14]; 4.1 nM): 1.22
- phenotypic distance ([14]; 12.3 nM): 0.493
- phenotypic distance ([14]; 37 nM): 0.804
- phenotypic distance ([14]; 111.1 nM): 0.401
- phenotypic distance ([14]; 333.3 nM): 0.814
- phenotypic distance ([14]; 1000 nM): 0.403
- phenotypic distance ([14]; 3000 nM): 0.73
